Measurements: PMC8583782, “Screening for the Active Anti-Inflammatory and Antioxidant Polyphenols of Gaultheria procumbens and Their Application for Standardisation: From Identification through Cellular Studies to Quantitative Determination” (International Journal of Molecular Sciences, 2021)
Like-named read-outs stand apart in the source and are kept apart here.

Molecular target: T1, HYAL (bovine testis hyaluronidase) (Bos taurus, UniProt Q2YDK3)
T1 construct: gene SPAM1; commercial native preparation from bovine testis (Merck)
T1 sequence (Q2YDK3 36-553): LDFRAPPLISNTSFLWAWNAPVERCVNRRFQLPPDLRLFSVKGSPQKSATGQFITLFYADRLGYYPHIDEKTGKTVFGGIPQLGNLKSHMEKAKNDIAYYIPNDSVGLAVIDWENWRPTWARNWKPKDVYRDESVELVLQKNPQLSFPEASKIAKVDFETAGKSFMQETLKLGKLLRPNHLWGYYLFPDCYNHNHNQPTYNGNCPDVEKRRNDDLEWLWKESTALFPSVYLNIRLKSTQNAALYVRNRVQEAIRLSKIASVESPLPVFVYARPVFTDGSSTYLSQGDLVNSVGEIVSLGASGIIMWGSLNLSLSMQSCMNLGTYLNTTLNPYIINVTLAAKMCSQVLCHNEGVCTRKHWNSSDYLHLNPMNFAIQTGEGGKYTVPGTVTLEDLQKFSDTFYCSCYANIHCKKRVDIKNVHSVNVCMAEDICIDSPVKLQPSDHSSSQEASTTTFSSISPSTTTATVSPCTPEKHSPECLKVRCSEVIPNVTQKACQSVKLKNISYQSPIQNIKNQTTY
Experiment: hyaluronidase inhibition assay
Type: biochemical
Details: read-out: Anti-Inflammatory Activity / HYAL / IC50 (μM) ^a
Excerpt: hyaluronidase inhibition assay on HYAL (bovine testis hyaluronidase)

O=C(/C=C/c1ccc(O)c(O)c1)O[C@@H]1C[C@](O)(C(=O)O)C[C@@H](O)[C@H]1O [CHA, 5-O-caffeoylquinic acid]
IC50 (tested at […]): 80.7 ± 3.42 µM

C[C@@H]1C[C@H]2[C@@H]3CCC4=CC(=O)C=C[C@]4(C)[C@@]3(F)[C@@H](O)C[C@]2(C)[C@@]1(O)C(=O)CO [DEX, dexamethasone, reference compound]
IC50 (positive control): 36.1 ± 2.68 µM

O=C(O)[C@H]1O[C@@H](Oc2c(-c3ccc(O)c(O)c3)oc3cc(O)cc(O)c3c2=O)[C@H](O[C@@H]2OC[C@@H](O)[C@H](O)[C@H]2O)[C@@H](O)[C@@H]1O [DGQ, quercetin 3-O-β-D-xylopyranosyl-(1→2)-β-D-glucuronopyranoside]
IC50 (tested at […]): 98.1 ± 2.31 µM

Oc1cc(O)c2c(c1)O[C@H](c1ccc(O)c(O)c1)[C@H](O)C2 [ECA, (−)-epicatechin]
IC50 (tested at […]): 81.9 ± 3.96 µM

COC(=O)c1ccccc1O[C@@H]1O[C@H](CO[C@@H]2OC[C@@H](O)[C@H](O)[C@H]2O)[C@@H](O)[C@H](O)[C@H]1O [GT, methyl salicylate 2-O-β-D-xylopyranosyl-(1→6)-β-D-glucuronopyranoside]
IC50 (tested at […]): 64 ± 2.87 µM

COc1ccc2c(c1)c(CC(=O)O)c(C)n2C(=O)c1ccc(Cl)cc1 [IND, indomethacin, reference compound]
IC50 (positive control): 35.7 ± 5.34 µM

O=C(O)[C@H]1O[C@@H](Oc2c(-c3ccc(O)c(O)c3)oc3cc(O)cc(O)c3c2=O)[C@H](O)[C@@H](O)[C@@H]1O [MQ, quercetin 3-O-β-D-glucuronopyranoside]
IC50 (tested at […]): 98.2 ± 4.41 µM

Oc1cc(O)c2c(c1)O[C@H](c1ccc(O)c(O)c1)[C@H](O)[C@H]2c1c(O)cc(O)c2c1O[C@H](c1ccc(O)c(O)c1)[C@H](O)C2 [PB2, epicatechin-(4β→8)-epicatechin]
IC50 (tested at […]): 37.4 ± 1.78 µM

O=c1c(O)c(-c2ccc(O)c(O)c2)oc2cc(O)cc(O)c12 [QU, quercetin]
IC50 (tested at […]): 102 ± 6.09 µM
